Data as given in patent US12077503B2, “Substituted cyclic amides and their use as herbicides” (FMC CORPORATION, priority 2015, dated 2024).

Columns and labels:
Assay type in all cases: in vivo
[1] = system: barnyardgrass (Echinochloa crus-galli); experiment: Test G Pre-Emergence Protocol; settings: Echinochloa crus-galli, pre-emergence, 312 h, evaluated after 13 days; for pest or weed control at 15.625 g/ha: 15.625 g ai/ha, read-out: Barnyard grass damage rating (100=total damage to plant; 0=no damage to plant); for pest or weed control at 62.5 g/ha: 62.5 g ai/ha, 100=total damage to plant, 0=no damage to plant, read-out: plant damage rating, Barnyardgrass; for pest or weed control at 250 g/ha: 250 g ai/ha, read-out: Barnyardgrass damage rating (100=total damage to plant; 0=no damage to plant)
Summary of the method: (§1)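 Test compound in 0.5% Tween 20 acetone/water (50:50) was applied at three rates (15.625, 62.5, 250 g/ha) to soil sown one day earlier. After 13 days plants were scored for injury, where 0 means unaffected and 100 means completely damaged.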

[2] = system: velvetleaf (Abutilon theophrasti); experiment: Test G Pre-Emergence Protocol; settings: Abutilon theophrasti, pre-emergence, 312 h, evaluated after 13 days; for pest or weed control at 15.625 g/ha: 15.625 g ai/ha; for pest or weed control at 15.625 g/ha / pest or weed control at 250 g/ha: read-out: Velvetleaf damage rating (100=total damage to plant; 0=no damage to plant); for pest or weed control at 62.5 g/ha: 62.5 g ai/ha, 100=total damage to plant, 0=no damage to plant, read-out: plant damage rating, Velvetleaf; for pest or weed control at 250 g/ha: 250 g ai/ha
Summary of the method: as §1

[3] = system: giant foxtail (Setaria faberi); experiment: Test G Pre-Emergence Protocol; settings: Setaria faberi, pre-emergence, 312 h, evaluated after 13 days; for pest or weed control at 15.625 g/ha: 15.625 g ai/ha; for pest or weed control at 15.625 g/ha / pest or weed control at 250 g/ha: read-out: Foxtail, Giant damage rating (100=total damage to plant; 0=no damage to plant); for pest or weed control at 62.5 g/ha: 62.5 g ai/ha, 100=total damage to plant, 0=no damage to plant, read-out: plant damage rating, Foxtail, Giant; for pest or weed control at 250 g/ha: 250 g ai/ha
Summary of the method: as §1

[4] = system: redroot pigweed (Amaranthus retroflexus); experiment: Test G Pre-Emergence Protocol; settings: Amaranthus retroflexus, pre-emergence, 312 h, evaluated after 13 days; for pest or weed control at 15.625 g/ha: 15.625 g ai/ha; for pest or weed control at 15.625 g/ha / pest or weed control at 250 g/ha: read-out: Pigweed, Redroot damage rating (100=total damage to plant; 0=no damage to plant); for pest or weed control at 62.5 g/ha: 62.5 g ai/ha, 100=total damage to plant, 0=no damage to plant, read-out: plant damage rating, Pigweed, Redroot; for pest or weed control at 250 g/ha: 250 g ai/ha
Summary of the method: as §1

corn (Zea mays) [5] = experiment: Test G Pre-Emergence Protocol; settings: Zea mays, pre-emergence, 312 h, evaluated after 13 days; for plant injury at 15.625 g/ha: 15.625 g ai/ha; for plant injury at 15.625 g/ha / plant injury at 250 g/ha: read-out: Corn damage rating (100=total damage to plant; 0=no damage to plant); for plant injury at 62.5 g/ha: 62.5 g ai/ha, 100=total damage to plant, 0=no damage to plant, read-out: plant damage rating, Corn; for plant injury at 250 g/ha: 250 g ai/ha
Summary of the method: as §1

[6] = system: ivy-leaved morning glory (Ipomoea hederacea); experiment: Test G Pre-Emergence Protocol; settings: Ipomoea, pre-emergence, 312 h, evaluated after 13 days; for pest or weed control at 15.625 g/ha: 15.625 g ai/ha, read-out: Morning-glory, Ivy-leaved damage rating (100=total damage to plant; 0=no damage to plant); for pest or weed control at 62.5 g/ha: 62.5 g ai/ha, 100=total damage to plant, 0=no damage to plant, read-out: plant damage rating, Morningglory, Ivy-leaved; for pest or weed control at 250 g/ha: 250 g ai/ha, read-out: Morningglory, Ivy-leaved damage rating (100=total damage to plant; 0=no damage to plant)
Summary of the method: as §1

[7] = system: barnyardgrass (Echinochloa crus-galli); experiment: Test G Post-Emergence Protocol; settings: Echinochloa crus-galli, post-emergence, 312 h; for pest or weed control at 15.625 g/ha: 15.625 g ai/ha, evaluated after 13 days (100=total damage to plant; 0=no damage to plant), read-out: Barnyardgrass damage rating; for pest or weed control at 62.5 g/ha: 62.5 g ai/ha, read-out: Barnyardgrass damage rating (100=total damage to plant; 0=no damage to plant); for pest or weed control at 62.5 g/ha / pest or weed control at 250 g/ha: evaluated after 13 days; for pest or weed control at 250 g/ha: 250 g ai/ha, read-out: damage to plant, Barnyardgrass (100=total damage to plant; 0=no damage to plant)
Summary of the method: (§2)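 A glasshouse post-emergence test: 8-day-old plants sprayed at 15.625, 62.5 or 250 g/ha, then grown at 24/16 °C day/night with 14 h light and 65% humidity. Damage rated 13 days later, 0–100.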

[8] = system: velvetleaf (Abutilon theophrasti); experiment: Test G Post-Emergence Protocol; settings: Abutilon theophrasti, post-emergence, 312 h; for pest or weed control at 15.625 g/ha: 15.625 g ai/ha, evaluated after 13 days (100=total damage to plant; 0=no damage to plant), read-out: Velvetleaf damage rating; for pest or weed control at 62.5 g/ha: 62.5 g ai/ha, read-out: Velvetleaf damage rating (100=total damage to plant; 0=no damage to plant); for pest or weed control at 62.5 g/ha / pest or weed control at 250 g/ha: evaluated after 13 days; for pest or weed control at 250 g/ha: 250 g ai/ha, read-out: damage to plant, Velvetleaf (100=total damage to plant; 0=no damage to plant)
Summary of the method: as §2

[9] = system: giant foxtail (Setaria faberi); experiment: Test G Post-Emergence Protocol; settings: Setaria faberi, post-emergence, 312 h; for pest or weed control at 15.625 g/ha: 15.625 g ai/ha, evaluated after 13 days (100=total damage to plant; 0=no damage to plant), read-out: Foxtail, Giant damage rating; for pest or weed control at 62.5 g/ha: 62.5 g ai/ha, read-out: Foxtail, Giant damage rating (100=total damage to plant; 0=no damage to plant); for pest or weed control at 62.5 g/ha / pest or weed control at 250 g/ha: evaluated after 13 days; for pest or weed control at 250 g/ha: 250 g ai/ha, read-out: damage to plant, Foxtail, Giant (100=total damage to plant; 0=no damage to plant)
Summary of the method: as §2

[10] = system: redroot pigweed (Amaranthus retroflexus); experiment: Test G Post-Emergence Protocol; settings: Amaranthus retroflexus, post-emergence, 312 h; for pest or weed control at 15.625 g/ha: 15.625 g ai/ha, evaluated after 13 days (100=total damage to plant; 0=no damage to plant), read-out: Pigweed, Redroot damage rating; for pest or weed control at 62.5 g/ha: 62.5 g ai/ha, read-out: Pigweed, Redroot damage rating (100=total damage to plant; 0=no damage to plant); for pest or weed control at 62.5 g/ha / pest or weed control at 250 g/ha: evaluated after 13 days; for pest or weed control at 250 g/ha: 250 g ai/ha, read-out: damage to plant, Pigweed, Redroot (100=total damage to plant; 0=no damage to plant)
Summary of the method: as §2

corn (Zea mays) [11] = experiment: Test G Post-Emergence Protocol; settings: Zea mays, post-emergence, 312 h; for plant injury at 15.625 g/ha: 15.625 g ai/ha, evaluated after 13 days (100=total damage to plant; 0=no damage to plant), read-out: Corn damage rating; for plant injury at 62.5 g/ha: 62.5 g ai/ha, read-out: Corn damage rating (100=total damage to plant; 0=no damage to plant); for plant injury at 62.5 g/ha / plant injury at 250 g/ha: evaluated after 13 days; for plant injury at 250 g/ha: 250 g ai/ha, read-out: damage to plant, Corn (100=total damage to plant; 0=no damage to plant)
Summary of the method: as §2

[12] = system: ivy-leaved morning glory (Ipomoea hederacea); experiment: Test G Post-Emergence Protocol; settings: Ipomoea, post-emergence, 312 h; for pest or weed control at 15.625 g/ha: 15.625 g ai/ha, evaluated after 13 days (100=total damage to plant; 0=no damage to plant), read-out: Morningglory, Ivy-leaved damage rating; for pest or weed control at 62.5 g/ha: 62.5 g ai/ha, read-out: Morningglory, Ivy-leaved damage rating (100=total damage to plant; 0=no damage to plant); for pest or weed control at 62.5 g/ha / pest or weed control at 250 g/ha: evaluated after 13 days; for pest or weed control at 250 g/ha: 250 g ai/ha, read-out: damage to plant, Morningglory, Ivy-leaved (100=total damage to plant; 0=no damage to plant)
Summary of the method: as §2

SMILES	pest or weed control at 15.625 g/ha [1] [%]	pest or weed control at 62.5 g/ha [1] [%]	pest or weed control at 250 g/ha [1] [%]	pest or weed control at 15.625 g/ha [2] [%]	pest or weed control at 62.5 g/ha [2] [%]	pest or weed control at 250 g/ha [2] [%]	pest or weed control at 15.625 g/ha [3] [%]	pest or weed control at 62.5 g/ha [3] [%]	pest or weed control at 250 g/ha [3] [%]	pest or weed control at 15.625 g/ha [4] [%]	pest or weed control at 62.5 g/ha [4] [%]	pest or weed control at 250 g/ha [4] [%]	plant injury at 15.625 g/ha (corn (Zea mays) [5]) [%]	plant injury at 62.5 g/ha (corn (Zea mays) [5]) [%]	plant injury at 250 g/ha (corn (Zea mays) [5]) [%]	pest or weed control at 15.625 g/ha [6] [%]	pest or weed control at 62.5 g/ha [6] [%]	pest or weed control at 250 g/ha [6] [%]	pest or weed control at 15.625 g/ha [7] [%]	pest or weed control at 62.5 g/ha [7] [%]	also measured
CN1C[C@@H](c2ccc(C(F)(F)F)cc2)[C@H](C(=O)Nc2ccc(Cl)nc2)C1=O (racemic) [Compound 1525]	0	0	40	0	0	0	0	10	30	0	0	0	0	0	0	0	0	0	0	0	pest or weed control at 250 g/ha [7]: 0%; pest or weed control at 15.625 g/ha [8]: 0%; pest or weed control at 62.5 g/ha [8]: 0%; pest or weed control at 250 g/ha [8]: 0%; pest or weed control at 15.625 g/ha [9]: 0%; pest or weed control at 62.5 g/ha [9]: 0%; pest or weed control at 250 g/ha [9]: 10%; pest or weed control at 15.625 g/ha [10]: 0%; pest or weed control at 62.5 g/ha [10]: 0%; pest or weed control at 250 g/ha [10]: 0%; plant injury at 15.625 g/ha (corn (Zea mays) [11]): 0%; plant injury at 62.5 g/ha (corn (Zea mays) [11]): 0%; plant injury at 250 g/ha (corn (Zea mays) [11]): 10%; pest or weed control at 15.625 g/ha [12]: 0%; pest or weed control at 62.5 g/ha [12]: 0%; pest or weed control at 250 g/ha [12]: 20%
CN1C[C@@H](c2ccc(C(F)(F)F)cc2)[C@H](C(=O)Nc2cn(C)nn2)C1=O (racemic) [Compound 1527]	0	0	0	0	0	0	0	0	0	0	0	0	0	0	0	0	0	0	0	0	pest or weed control at 250 g/ha [7]: 0%; pest or weed control at 15.625 g/ha [8]: 0%; pest or weed control at 62.5 g/ha [8]: 0%; pest or weed control at 250 g/ha [8]: 0%; pest or weed control at 15.625 g/ha [9]: 0%; pest or weed control at 62.5 g/ha [9]: 0%; pest or weed control at 250 g/ha [9]: 0%; pest or weed control at 15.625 g/ha [10]: 0%; pest or weed control at 62.5 g/ha [10]: 0%; pest or weed control at 250 g/ha [10]: 0%; plant injury at 15.625 g/ha (corn (Zea mays) [11]): 10%; plant injury at 62.5 g/ha (corn (Zea mays) [11]): 10%; plant injury at 250 g/ha (corn (Zea mays) [11]): 10%; pest or weed control at 15.625 g/ha [12]: 0%; pest or weed control at 62.5 g/ha [12]: 0%; pest or weed control at 250 g/ha [12]: 0%
